We go through 1 molecule from patent publication US20230131427A1, “FUNGICIDAL COMPOSITIONS” (SYNGENTA CROP PROTECTION AG, priority 2020, published 2023).

Molecules are shown by their SMILES. Several values for one entry are separate records, joined by “and”; a condition that tells them apart may be missing. Identical values can stand only once. Like-named read-outs stand apart in the source and are kept apart here. Where only a bound is given, the exact number is not on record here.

For data set [1], the system named is Puccinia recondita f. sp. tritici. Nature of the data set: Puccinia recondita f. sp. tritici / wheat / leaf disc preventative (brown rust). The format is in vivo. To be noted: foliar, vs untreated control. The procedure: (§1) Leaf disks or leaf segments of various plant species are cut from plants grown in a greenhouse. The cut leaf disks or segments are placed in multiwell plates (24-well format) onto water agar. The leaf disks are sprayed with a test solution before (preventative) or after (curative) inoculation. Compounds to be tested are prepared as DMSO solutions (max. 10 mg/mL) which are diluted to the appropriate concentration with 0.025% Tween20 just before spraying. The inoculated leaf disks or segments are incubated under defined conditions (temperature, relative humidity, light, etc.) according to the respective test system. A single evaluation of disease level is carried out 3 to 14 days after inoculation, depending on the pathosystem. Percent disease control relative to the untreated check leaf disks or segments is then calculated.
Wheat leaf segments cv. Kanzler are placed on agar in multiwell plates (24-well format) and sprayed with the formulated test compound diluted in water. The leaf disks are inoculated with a spore suspension of the fungus 1 day after application. The inoculated leaf segments are incubated at 19° C. and 75% rh under a light regime of 12 h light/12 h darkness in a climate cabinet and the activity of a compound is assessed as percent disease control compared to untreated when an appropriate level of disease damage appears in untreated check leaf segments (7-9 days after application).

For data set [2] the test system is unchanged. Nature of the data set: Puccinia recondita f. sp. tritici / wheat / leaf disc curative (brown rust). To be noted: foliar, vs untreated control. The format is in vivo. The procedure:
Leaf disks or leaf segments of various plant species are cut from plants grown in a greenhouse. The cut leaf disks or segments are placed in multiwell plates (24-well format) onto water agar. The leaf disks are sprayed with a test solution before (preventative) or after (curative) inoculation. […] The inoculated leaf disks or segments are incubated under defined conditions (temperature, relative humidity, light, etc.) according to the respective test system. […] Percent disease control relative to the untreated check leaf disks or segments is then calculated. Wheat leaf segments cv. Kanzler are placed on agar in multiwell plates (24-well format). The leaf segments are inoculated with a spore suspension of the fungus. […] The formulated test compound diluted in water is applied 1 day after inoculation.

In data set [3] the test system is Phakopsora pachyrhizi. Briefly: Phakopsora pachyrhizi / soybean / leaf disc preventative (Asian soybean rust). The format is in vivo. To be noted: foliar, 288 h, vs untreated control. The procedure: as §1
Soybean leaf disks are placed on agar in multiwell plates (24-well format) and sprayed with test solutions. After drying, the leaf disks are inoculated with a spore suspension of the fungus. After appropriate incubation the activity of a compound is assessed approx.12 dpi (days after inoculation) as preventive fungicidal activity.

In data set [4] the test system is Glomerella lagenarium (Colletotrichum lagenarium). Briefly: Glomerella lagenarium (Colletotrichum lagenarium) liquid culture / cucumber / preventative (anthracnose). The note with it: Colletotrichum orbiculare, vs untreated control. The format is cell-based. As to the method: Mycelia fragments or conidia suspensions of a fungus prepared either freshly from liquid cultures of the fungus or from cryogenic storage, are directly mixed into nutrient broth. DMSO solutions of the test compound (max. 10 mg/mL) are diluted with 0.025% Tween20 by a factor of 50 and 10 μl of this solution is pipetted into a microtiter plate (96-well format). The nutrient broth containing the fungal spores/mycelia fragments is then added to give an end concentration of the tested compound. The test plates are incubated in the dark at 24° C. and 96% relative humidity. The inhibition of fungal growth is determined photometrically after 2 to 7 days, depending on the pathosystem, and percent antifungal activity relative to the untreated check is calculated.
Conidia of the fungus from cryogenic storage are directly mixed into nutrient broth (PDB potato dextrose broth). After placing a (DMSO) solution of test compound into a microtiter plate (96-well format), the nutrient broth containing the fungal spores is added.

The subject of data set [5] is Glomerella lagenarium syn. Colletotrichum lagenarium. Briefly: Example B1: mixtures, preventative activity against Glomerella lagenarium syn. Colletotrichum lagenarium, liquid culture. The format is cell-based. To be noted: Colletotrichum orbiculare; component A alone, 0.03 ppm. In a few lines:
(§2)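 Fungal conidia mixed into potato dextrose broth were added to test compounds or mixtures in DMSO in microtiter wells. Fungicidal activity was scored on a 100-0 scale (100 = no disease growth; 0 = well fully covered by mycelium). Synergy was assessed by the Colby formula, comparing observed (O) with expected (E) action.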

In a further data set the test system is Septoria glycines. Briefly: Example B2: mixtures, preventative activity against Septoria glycines (brown spot), liquid culture. The format is cell-based. The note with it: Septoria glycines, component A alone. In a few lines: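 Conidia from fresh culture mixed into potato dextrose broth and added to test compounds in DMSO in 96-well plates. Growth inhibition scored 100-0 (100 = no growth; 0 = well covered by mycelium); synergy of mixtures judged by Colby expected-action (O-E).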

Another data set relates to Septoria tritici. Nature of the data set: Example B3: mixtures, preventative activity against Septoria tritici (leaf blotch), liquid culture. The format is cell-based. To be noted: component A alone, 100-0 scale. In a few lines: as §2
The test system of data set [6] is Mycosphaerella arachidis syn. Cercospora arachidicola. Briefly: Example B4: mixtures, preventative activity against Mycosphaerella arachidis syn. Cercospora arachidicola (brown leaf spot of peanut), liquid culture. To be noted: Mycosphaerella arachidis, component A alone. The format is cell-based.
In data set [7] the test system is Phakopsora pachyrhizi. Nature of the data set: Example B5: preventative activity against Phakopsora pachyrhizi (soybean rust), whole soybean plants sprayed, leaf disks inoculated. The class given is in vivo. In a few lines: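 Soybean plants sprayed 4 weeks after planting at rates in g a.i./ha; leaf disks from the first trifoliate cut 1 day later and inoculated with rust, five repetitions per rate. Scored 11–14 days post-inoculation relative to untreated infested check (100 = no disease, 0 = heavy infestation).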

Regarding `CCCc1ccn(-c2ccc(C)c(O/C(=C\OC)C(=O)OC)c2)n1` [X.01, methyl (Z)-3-methoxy-2-[2-methyl-5-(3-propylpyrazol-1-yl)phenoxy]prop-2-enoate], the melting point lay in the range of 91 to 94 °C. Further, the pest or weed control at 200 ppm in data set [1] was at least 80%. This molecule also returned a pest or weed control at 200 ppm in [2] of at least 80%. For the same molecule, the pest or weed control at 67 ppm in the data set with Phakopsora pachyrhizi [3] is at least 80%. Moreover, in data set [4], the inhibition of growth at 6.7 ppm is at least 80%. Moreover, the inhibition at 0.03 ppm in [5] amounted to 70%. In the data set with Septoria glycines (0.003125 ppm), the inhibition at 0.003125 ppm was determined as 20%. The inhibition at 0.00625 ppm in the data set on Septoria glycines (0.00625 ppm) was 70%. The inhibition at 0.003125 ppm with Septoria tritici (Zymoseptoria tritici, 0.003125 ppm) was 20%. Moreover, the inhibition at 0.00625 ppm with Septoria tritici (Zymoseptoria tritici, 0.00625 ppm) was 50%. The “Activity (%) A” value with Septoria tritici (0.00625 ppm) is given as 70%. In addition, the inhibition at 0.003125 ppm in data set [6] (0.003125 ppm) was 0%. Further, the inhibition at 0.00625 ppm in data set [6] (0.00625 ppm) is 20%. Also, the inhibition at 9 g/ha in the data set on Phakopsora pachyrhizi [7] (Phakopsora pachyrhizi, foliar, active ingredient alone, 9 g/ha, read-out: Observed Activity (%) (% of untreated)) was 78%. Also, the inhibition at 18 g/ha with Phakopsora pachyrhizi [7] (Phakopsora pachyrhizi, foliar, active ingredient alone, 18 g/ha, read-out: Observed Activity (%) (% of untreated)) was determined as 85%. Moreover, in the data set with Phakopsora pachyrhizi [7] (Phakopsora pachyrhizi, foliar, applied alone, 9 g/ha, read-out: Observed Activity (% of untreated) against Phakopsora pachyrhizi), the inhibition at 9 g/ha is 85%. Further, the “Observed Activity (%) (% of untreated)” value in the data set on Phakopsora pachyrhizi [7] (active ingredient alone, 4.5 g/ha) was 61% and 87% and 82% and 69%. Further, the “Observed Activity (%) (% of untreated)” value with Phakopsora pachyrhizi [7] (active ingredient alone, 9 g/ha) was 94% and 90%. Besides, the “Observed Activity (%) (% of untreated)” value in the data set with Phakopsora pachyrhizi [7] (active ingredient alone, 18 g/ha) was 97%. For the same molecule, the “Observed Activity (% of untreated) against Phakopsora pachyrhizi” value in the data set with Phakopsora pachyrhizi [7] (applied alone, 2.25 g/ha) was 24% and 31%. In addition, in the data set on Phakopsora pachyrhizi [7] (applied alone, 4.5 g/ha), the “Observed Activity (% of untreated) against Phakopsora pachyrhizi” value was 69% and 64%.

In general, pest or weed control refers to how far the test organism was held down. A higher pest or weed control goes with strong suppression. By inhibition of growth is commonly meant the share of the control response that was lost under treatment. A lower inhibition of growth goes with a response near the control. As a reminder, the melting point is the temperature of the solid-liquid transition.
